Cytotoxicity data for 102 molecules are collected here from ChEMBL document CHEMBL3507680, “University of Dundee, Gates Library screen for HepG2 cell viability”.

This data set can be described thus: Human HepG2 cell viability assay in 384 well format. The data set is classed as toxicity, cell-based. Further details: dose 125 nL, time 70.5 hour; concentration not given beside the values. The note with it: HepG2 cells, read-out: Inhibition.

On to `N#Cc1ccnc(SCC2CN=C(N3CCOCC3)S2)c1` (configuration not stated), for which the cytotoxicity at 70.5 h came out at 2.81%.

Consider `CC(C)c1nc(CSc2nnc(Cn3cncn3)o2)cs1`, for which the cytotoxicity at 70.5 h came to 0.92%. Consider `CSc1nc(C2CC2)nc(C)c1C(=O)NCc1ccco1`, for which the cytotoxicity at 70.5 h came to 16.1%. As to `Cc1nc(CNC(=O)NC2CCN(c3cccc(Cl)c3)C2)no1` (configuration not stated), the cytotoxicity at 70.5 h was -1.4%. With `O=C(NCCc1ccccn1)N1CCSC2(CCCCC2)C1` the figure was 1.93%. For `Cn1nccc1CNC(=O)NC1CCN(c2ncccc2Cl)C1` (configuration not stated) the value was -0.776%; for `Cc1[nH]ncc1C(C)NCc1ccc(F)cc1` (configuration not stated), -1.27%; for `COc1ccc(S(=O)(=O)NC2(CC(N)=O)CCC2)cc1`, 20.9%. As to `Cc1nc(CNC(=O)NC2CCN(c3ncccc3Cl)C2)oc1C` (configuration not stated), the cytotoxicity at 70.5 h came to 14.8%. With `Cc1nc(O)ccc1C(=O)N1CCCC1c1nc(-c2ccccc2)n[nH]1` (configuration not stated), the cytotoxicity at 70.5 h was 0.447%. For `CN1CCN(Cc2cccc(NCc3cc[nH]n3)c2)CC1` the value was -5.29%; for `c1ccc(NCc2ccsc2)c(Cn2cncn2)c1`, -15.1%. For the molecule `CC(C)(C)c1ncc(CNc2ccccc2Cn2cncn2)s1`, the cytotoxicity at 70.5 h was -8.54%. Take `CC(CO)(NC(=O)Nc1nnc(C2CC2)s1)C1CCCCC1` (configuration not stated): the cytotoxicity at 70.5 h was -11.1%. On to `Cn1ccc(C(=O)NCc2ccccc2Cn2ccnc2)cc1=O`, for which the cytotoxicity at 70.5 h was -8.24%. For `CCC(CC)c1nnc(NC(=O)N2CCCC(NC(C)=O)C2)s1` (configuration not stated) the value was -5.89%; for `COc1cc(OC)c(CNC(=O)NCC(=O)N2CCCC2)c(OC)c1`, -6.53%; for `CC(C)NC(=O)C1CCN(C(C)C(=O)N2CCc3sccc3C2)CC1` (configuration not stated), -2.44%. For `CC(C)N(Cc1cnn(C)c1)C(=O)c1ccnc(N(C)C)c1` the value was -7.21%; for `CNC(=O)CN1CCC(NC(=O)CC(C)CCc2ccccc2)CC1` (configuration not stated), 12.1%; for `CCOc1ccc(C(=O)N(Cc2cnn(C)c2)C(C)C)cc1`, -1.86%. On to `Cn1ccc(C(=O)NCc2ccc(Cn3ccnc3)cc2)cc1=O`, for which the cytotoxicity at 70.5 h is -1.16%. For `CCN(CC)CCCN1CCC(NC(=O)OC(C)(C)C)CC1` the value was -4.36%. With `CCN1CCN(CCNc2nc3ccc(C)cc3c(=O)n2C)CC1` the figure was 11.8%; with `CCOc1ccnc(N2CCN(C(=O)CCc3cnn(C)c3)CC2)n1`, -4.83%; with `NC(=O)C1CCCN1Cc1ccccc1NC(=O)CC(F)(F)F` (configuration not stated), -3.67%. For `Cc1ccc(C(=O)NS(C)(=O)=O)cc1S(C)(=O)=O` the value was 3.46%; for `CCCC(C)NC(=O)CCN1C(=O)CCc2cc(F)ccc21` (configuration not stated), 2.38%. In the case of `c1cncc(-c2nc3c(c(NCC4(c5ccncc5)CC4)n2)CCC3)c1`, the cytotoxicity at 70.5 h was -0.48%. With `CCN(CC)C(=O)Nc1ccc(C(=O)N(C)C)c(C)c1` the figure was 2.13%; with `CCOC(C)c1noc(CN(C)C(=O)c2cc3ccccn3c2)n1` (configuration not stated), -3.99%; with `CCOC(C)c1noc(CN(C)C(=O)c2ccncc2)n1` (configuration not stated), 0.244%. `CC(C)c1nsc(NC2CCOC3(CCCC3)C2)n1` (configuration not stated): the cytotoxicity at 70.5 h is -0.215%.

As for `Cc1nsc(NC2CCOC3(CCCCC3)C2)n1` (configuration not stated), the cytotoxicity at 70.5 h is -8.47%. For `COCCCOc1ccc(C(=O)N(Cc2cnn(C)c2)C(C)C)cn1` the value was -7.46%; for `CN1CCCC(N(C)S(=O)(=O)c2cccc3ncccc23)C1` (configuration not stated), -1.85%. Consider `COCC(C)NC(=O)CCCn1cnc2ccccc2c1=O` (configuration not stated), for which the cytotoxicity at 70.5 h is -5.09%.

`O=c1cc(CNCc2ccc3c(c2)OCO3)nc2ccccn12`: the cytotoxicity at 70.5 h is -6.34%. As to `O=C(CCC1CCCO1)NCCCC(=O)Nc1ccc(Cl)cc1` (configuration not stated), the cytotoxicity at 70.5 h was -12%. With `O=C(CCn1c(=O)oc2ccccc21)NCC(O)c1ccc(F)c(F)c1` (configuration not stated) the figure was -4.98%; with `Fc1ccc(C2CN(CCc3ccncc3)CCO2)cc1` (configuration not stated), 14.4%. Regarding `O=C(Cc1ccc(F)cc1)NCCNS(=O)(=O)C1CCCC1`, the cytotoxicity at 70.5 h is -8.77%. For `c1ccc(C2CN(CCc3ccncc3)CCO2)cc1` (configuration not stated) the value was -9.13%. With `Cc1csc(CNC(=O)Nc2ccc3c(c2)OCO3)n1` the figure was -7.99%. As to `Cc1cc(C(=O)Nc2ccn(CCCN3CCCC3)n2)no1`, the cytotoxicity at 70.5 h amounted to 1.38%. For `O=C(NCC(CO)Cc1cccc(OC(F)(F)F)c1)c1cnccn1` (configuration not stated) the value was 19.2%. With `CCc1cnc(CCNS(C)(=O)=O)s1` the figure was -6.67%; with `O=C(NCCn1cnnc1C1CC1)c1c(O)cc(F)cc1F`, -11.9%. Regarding `O=C(NCC1CCC2(CC1)OCCO2)c1cccc(-n2cccn2)c1`, the cytotoxicity at 70.5 h was determined as 19.6%. With `CC(C)(C)OC(=O)N1CCN(S(=O)(=O)CCCC#N)C2(CCCCC2)C1` the figure was -4.48%; with `CC(C)(NS(C)(=O)=O)c1nc(-c2ccc(F)c(F)c2)no1`, -5.95%. Take `Cc1ccc(-c2noc(C(C)(C)NS(C)(=O)=O)n2)cc1F`: the cytotoxicity at 70.5 h is -2.69%. For `Cc1occc1C(=O)N1CCCS1(=O)=O` the value was -12%. For the molecule `CNC(=O)NCC(CO)Cc1ccccc1OC(F)(F)F` (configuration not stated), the cytotoxicity at 70.5 h was -5.84%. For `COc1cccc(CNc2nnc(C(C)(C)C)o2)c1OC` the value was -11.6%; for `Cc1cnc(CN2CCN(c3ccnc(-c4ccccc4)n3)CC2)cn1`, -10.6%; for `O=S(=O)(N1CCCC1)N(Cc1ccccc1)CC1CCCO1` (configuration not stated), -7.82%. For the molecule `CCN(CC1CCCO1)S(=O)(=O)N1CCCCCC1` (configuration not stated), the cytotoxicity at 70.5 h was -8.65%.

In the case of `Cc1noc(C)c1CN1CCN(c2ccnc(-c3ccccc3)n2)CC1`, the cytotoxicity at 70.5 h came out at 26.5%. For `Clc1ccccc1C1CN(CCc2ccncc2)CCO1` (configuration not stated) the value was -6.68%; for `CCc1nccn1CC(=O)Nc1cccc(C(=O)OC)c1`, -5.31%; for `Cc1cc(C(=O)Nc2ccn(CCCN3CCCC3)n2)c(C)o1`, -0.537%. With `CC1CN(CCc2ccncc2)CCO1` (configuration not stated) the figure was 3.7%. Take `CCC(=O)Nc1ccc(F)c(S(=O)(=O)NC(C)(C)C)c1`: the cytotoxicity at 70.5 h was determined as 8.07%. Take `Cc1cn2c(n1)C(CNCc1ccc(C)s1)CCC2` (configuration not stated): the cytotoxicity at 70.5 h worked out at 8.09%. For `Cc1ccccc1CN(C)C(=O)c1ccoc1` the value was 3.46%. For `Cc1ccc(CS(=O)(=O)Cc2nc(N)nc(N(C)C)n2)cc1` the value was 0.995%; for `CC(C)c1ccc(S(=O)(=O)Cc2nc(N)nc(N(C)C)n2)cc1`, -1.91%; for `CC(C)(C)c1cnc(CN2CCC(NC(=O)Nc3ccccc3)CC2)o1`, 15.4%. For `CCCC(C)NC(=O)c1ccc(-c2ccco2)[nH]c1=O` (configuration not stated), the cytotoxicity at 70.5 h is -2.99%. Consider `CCCN(CC1CC1)C(=O)Cn1ccccc1=O`, for which the cytotoxicity at 70.5 h was -3.4%.

Turning to `CCC(=O)N1CCN(C(=O)NC2CCc3ccccc3C2)CC1` (configuration not stated), the cytotoxicity at 70.5 h is -4.1%. With `CC(C)(C)c1cnc(CN2CCC(NC(=O)C3CCOCC3)CC2)o1` the figure was -5%; with `Nc1cc2c(nn1)CCN(C(=O)c1csc(-c3ccco3)n1)C2`, -4.34%; with `O=C(NC1CCc2ccccc2C1)N1CCN(C(=O)C2CCC2)CC1` (configuration not stated), -5.12%.

For the molecule `COC(=O)c1ccc(C(=O)NCc2ccc(Br)cc2)cn1`, the cytotoxicity at 70.5 h is -2.31%. For `Cn1cnc(-c2nc(C(=O)NCCN3CCOCC3)c3ccccn23)c1` the value was -2.81%. For `Cn1cnc(-c2nc(C(=O)NCCN3CCCC3)c3ccccn23)c1` the value was -5.67%.

Consider `CCC(=O)N1CCc2onc(CNS(C)(=O)=O)c2C1`, for which the cytotoxicity at 70.5 h amounted to 9.89%. In the case of `CCn1c2c(ccc1=O)CC(NCc1cnn(C)c1)CC2` (configuration not stated), the cytotoxicity at 70.5 h was -4.95%. For `CS(=O)(=O)NCc1noc2c1CN(C(=O)C1CC1)CC2` the value was -7.86%. With `CN1CCN(Cc2cn3c(n2)CN(Cc2ccccn2)CC3)CC1`, the cytotoxicity at 70.5 h was -9.35%. With `CCOCC1c2c(ncn2C)CCN1C(=O)c1ccoc1` (configuration not stated) the figure was -17.6%; with `COC[C@@H]1CCC[C@@]12CN(C(=O)C1CCOCC1)CCO2`, -7.08%. Take `CCC(=O)N1CCC2(CC1)CC(CC(=O)N(C)C)c1ccc(F)cc12` (configuration not stated): the cytotoxicity at 70.5 h was -1.89%. With `CN1CCC2(CC1)CN(C(=O)c1cccnc1)c1ccc(Cl)cc12`, the cytotoxicity at 70.5 h was -10.6%. For `CS(=O)(=O)N1CCC2(CC1)CC(NCc1ccccn1)c1ccccc12` (configuration not stated) the value was -9.6%; for `N#Cc1ccc(NC(=O)C2CSCN2)cc1` (configuration not stated), -6.81%. Regarding `COC[C@@]12CCC[C@@H]1CN(C(=O)Cc1ccccn1)C2`, the cytotoxicity at 70.5 h was determined as 9.13%.

`CCOC1COC2(CCN(CC3CCOCC3)CC2)C1` (configuration not stated): the cytotoxicity at 70.5 h was found to be 14.7%. With `CO[C@H]1CN(CC2CCOCC2)[C@@H]2CCCO[C@H]12` the figure was -7.16%; with `CS(=O)(=O)N1CCC2(CC1)CC(NCC1CC1)c1ccccc12` (configuration not stated), -7.3%. With `O=S(=O)(C1CC1)N1CCc2ncnc(N3CCCC3)c2CC1` the figure was -14.9%.

Consider `COC1COC2(CCN(CC3CC3)CC2)C1` (configuration not stated), for which the cytotoxicity at 70.5 h is -12.5%.

Take `Cn1cc(CNC2CC3(CCN(S(C)(=O)=O)CC3)c3ccccc32)cn1` (configuration not stated): the cytotoxicity at 70.5 h was -11.7%. As for `CC(=O)N1CCC2(CC1)CN(C(=O)c1cccnc1)c1ccc(F)cc12`, the cytotoxicity at 70.5 h was -3.83%. In the case of `CCO[C@H]1CN(CC2CCOCC2)[C@@H]2CCCO[C@H]12`, the cytotoxicity at 70.5 h is 9.78%.

As to `O=C(N1CCCC1)N1C[C@H]2CCC[C@@]2(COCc2ccccn2)C1`, the cytotoxicity at 70.5 h is -10.8%.

Turning to `Cc1cccc(CN2C[C@@H]3COC[C@]3(CNC(=O)C3CC3)C2)c1`, the cytotoxicity at 70.5 h was -9.63%. For `Cn1cc(CNC2CCc3c(ccc(=O)n3Cc3cccnc3)C2)cn1` (configuration not stated) the value was -14.4%; for `COCC1CC2(CCN(c3ccccn3)CC2)CN1C(C)C` (configuration not stated), -11.6%; for `CN1CCN(Cc2cn3c(n2)CN(Cc2ccc(F)cc2)CC3)CC1`, -9.1%.
